This note sets out measurements from US20060099643A1, “Method for determining the regulation of xenobiotic removal” (priority 2002, published 2006).

For one data set, the target named is T1, SXR (Homo sapiens, UniProt O75469).
T1 sequence (O75469 1-434): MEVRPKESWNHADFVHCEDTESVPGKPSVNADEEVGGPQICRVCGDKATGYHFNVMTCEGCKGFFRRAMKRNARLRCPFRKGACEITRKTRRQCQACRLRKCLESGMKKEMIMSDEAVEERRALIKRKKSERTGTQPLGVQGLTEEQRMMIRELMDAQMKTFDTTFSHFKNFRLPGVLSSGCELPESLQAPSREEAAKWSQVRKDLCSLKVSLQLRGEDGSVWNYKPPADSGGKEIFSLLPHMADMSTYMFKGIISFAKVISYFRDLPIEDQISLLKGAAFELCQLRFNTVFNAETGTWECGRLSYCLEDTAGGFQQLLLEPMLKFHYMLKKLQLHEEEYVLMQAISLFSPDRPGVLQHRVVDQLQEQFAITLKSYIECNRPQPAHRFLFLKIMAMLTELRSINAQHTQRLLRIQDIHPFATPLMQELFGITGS
Nature of the data set: Microplate thermal shift assay (Thermofluor) of SXR with ligands, co-activator peptide SRC1-NR2 and co-repressor peptide NCoR-1. The conditions noted are these: for ΔΔTm SRC1-NR2 / ΔΔTm NcoR1-NR2 / ΔTm ligand: SXR 6 μM, ligand 50 μM; for ΔΔTm SRC1-NR2: co-activator peptide SRC1-NR2 100 μM; for ΔΔTm SRC1-NR2 / ΔΔTm NcoR1-NR2: change from the receptor-ligand ΔTm; for ΔΔTm NcoR1-NR2: co-repressor peptide NCoR-1 100 μM; for ΔTm ligand: average of four experiments; for Probability Agonist (statistical probability of agonist state): computed from affinities derived from ΔΔTm with co-regulator peptides (FIG. 3); for ΔTm at 100 µM: read-out: ΔΔTm NcoR1-NR2. Here is the method: A 2 μL ligand solution at 2 times the final concentration was dispensed with a micropipette into a 384 well black wall Greiner plate. Then, 2 μL of the protein dye solution was dispensed on top of the ligand solution in the 384 well plate. The plates were spun to ensure mixing of the protein-dye and ligand solutions followed by layering of 1 μL of silicone oil to prevent evaporation during heating of the samples. […] The values for the co-regulators represent a change in Tm stabilization from the receptor-ligand ΔTm values.

In data set [1] the target is ER-β (Homo sapiens, UniProt Q92731). Nature of the data set: Microplate thermal shift assay (Thermofluor) of ER-β with ligands and co-regulators. To be noted: for Observed ΔTm Stabilization, SRC3-NR2: co-activator peptide SRC3-NR2 100 μM; for Observed ΔTm Stabilization, NR2: change in Tm stabilization from the receptor-ligand ΔTm; for Observed ΔTm Stabilization, NR2 / Observed ΔTm Stabilization, SRC-3: head shifted, see doubts; for Observed ΔTm Stabilization, SRC-3: average of four experiments. It is filed as binding. On the technique in general: In DSF a fluorescence change marks the thermal transition of the protein.
Chain of ER-β (Homo sapiens, UniProt Q92731) (Q92731 whole entry, species assumed): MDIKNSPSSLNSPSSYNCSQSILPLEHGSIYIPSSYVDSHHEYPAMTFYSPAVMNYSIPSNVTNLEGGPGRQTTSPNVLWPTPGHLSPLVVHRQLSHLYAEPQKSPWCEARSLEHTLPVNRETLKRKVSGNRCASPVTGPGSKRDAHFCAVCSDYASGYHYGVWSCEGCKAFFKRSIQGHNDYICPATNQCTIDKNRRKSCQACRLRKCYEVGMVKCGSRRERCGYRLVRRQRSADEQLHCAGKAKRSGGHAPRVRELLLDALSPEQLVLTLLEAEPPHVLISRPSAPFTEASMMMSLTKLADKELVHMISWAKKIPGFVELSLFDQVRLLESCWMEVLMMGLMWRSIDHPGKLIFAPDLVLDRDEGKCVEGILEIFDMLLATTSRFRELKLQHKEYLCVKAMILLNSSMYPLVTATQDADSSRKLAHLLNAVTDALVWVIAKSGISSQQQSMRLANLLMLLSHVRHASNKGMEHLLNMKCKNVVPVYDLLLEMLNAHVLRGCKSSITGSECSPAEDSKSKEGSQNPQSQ
Experimental: (§1) A 2 μM ligand solution at 2 times the final concentration was dispensed with a micropipette into a 384 well black wall Greiner plate. Then, 2 μL of the protein dye solution was dispensed on top of the ligand solution in the 384 well plate. The plates were spun to ensure mixing of the protein-dye and ligand solutions followed by layering of 1 μL of silicone oil to prevent evaporation during heating of the samples.

Data set [2] concerns the target T2, ER-α (Homo sapiens, UniProt P03372).
T2 sequence (P03372 1-595): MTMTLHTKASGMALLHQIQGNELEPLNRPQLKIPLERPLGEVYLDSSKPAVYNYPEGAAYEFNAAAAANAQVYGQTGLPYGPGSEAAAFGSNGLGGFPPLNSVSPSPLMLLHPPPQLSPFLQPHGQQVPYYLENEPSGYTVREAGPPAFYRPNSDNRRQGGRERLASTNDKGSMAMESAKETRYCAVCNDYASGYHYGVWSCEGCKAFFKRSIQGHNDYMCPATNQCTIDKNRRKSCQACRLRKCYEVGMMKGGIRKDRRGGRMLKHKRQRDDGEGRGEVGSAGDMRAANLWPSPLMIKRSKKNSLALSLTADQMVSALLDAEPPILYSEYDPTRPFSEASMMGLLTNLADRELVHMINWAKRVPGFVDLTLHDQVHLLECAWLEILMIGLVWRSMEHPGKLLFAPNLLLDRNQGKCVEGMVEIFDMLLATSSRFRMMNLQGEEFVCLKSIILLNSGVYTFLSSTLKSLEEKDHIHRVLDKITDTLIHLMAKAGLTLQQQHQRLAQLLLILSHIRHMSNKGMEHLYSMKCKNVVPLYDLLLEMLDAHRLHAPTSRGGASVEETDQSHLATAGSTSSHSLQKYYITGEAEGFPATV
Nature of the data set: Microplate thermal shift assay (Thermofluor) of ER-α with ligands and co-regulators. Format: binding.
Experimental: as §1

The target in data set [3] is T3, ER-α (UniProt P03372 297-554, limits assumed).
T3 construct: also called estrogen receptor alpha
T3 sequence (looked up): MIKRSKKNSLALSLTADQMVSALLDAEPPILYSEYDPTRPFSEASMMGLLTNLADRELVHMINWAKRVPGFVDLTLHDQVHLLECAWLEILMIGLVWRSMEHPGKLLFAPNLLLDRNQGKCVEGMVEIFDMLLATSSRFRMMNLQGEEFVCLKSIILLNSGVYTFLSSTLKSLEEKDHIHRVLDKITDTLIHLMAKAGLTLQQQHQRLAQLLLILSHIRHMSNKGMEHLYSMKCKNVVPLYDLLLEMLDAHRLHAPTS
In words: Thermofluor thermal shift; ER-α 8 µM, no ligand; peptide 100 µM.
Experimental: as §1

Data set [4] concerns the target T4, ER-β (UniProt Q92731 256-505, limits assumed).
T4 construct: also called estrogen receptor beta
In words: Thermofluor thermal shift; ER-β 8 µM, no ligand; peptide 100 µM.
Experimental: as §1

Data set [5] addresses T3, ER-α. In words: Thermofluor thermal shift; ER-α 8 µM with estrone 20 µM; peptide 100 µM.
Experimental: as §1
The target of data set [6] is T4, ER-β. Nature of the data set: Thermofluor thermal shift; ER-β 8 µM with estrone 20 µM; peptide 100 µM.
Experimental: as §1
Data set [7] addresses T3, ER-α. In words: Thermofluor thermal shift; ER-α 8 µM with estradiol 20 µM; peptide 100 µM.
Experimental: as §1
The target of data set [8] is T3, ER-α. In words: Thermofluor thermal shift; ER-α 8 µM with tamoxifen 20 µM; peptide 100 µM.
Experimental: as §1
The target of data set [9] is T4, ER-β. In words: Thermofluor thermal shift; ER-β 8 µM with estradiol 20 µM; peptide 100 µM.
Experimental: as §1
Data set [10] deals with T4, ER-β. Nature of the data set: Thermofluor thermal shift; ER-β 8 µM with tamoxifen 20 µM; peptide 100 µM.
Experimental: as §1
Data set [11] addresses T3, ER-α. Nature of the data set: Thermofluor thermal shift; ER-α 8 µM with ICI-182780 20 µM; peptide 100 µM.
Experimental: as §1
The target of data set [12] is T4, ER-β. Nature of the data set: Thermofluor thermal shift; ER-β 8 µM with ICI-182780 20 µM; peptide 100 µM.
Experimental: as §1
Data set [13] deals with T3, ER-α. Nature of the data set: Thermofluor thermal shift; ER-α 8 µM with 2-methoxy-E2 20 µM; peptide 100 µM.
Experimental: as §1
In data set [14] the target is T4, ER-β. In words: Thermofluor thermal shift; ER-β 8 µM with 2-methoxy-E2 20 µM; peptide 100 µM.
Experimental: as §1
Data set [15] concerns the target T3, ER-α. Nature of the data set: Thermofluor thermal shift; ER-α 8 µM with 4-OH-tamoxifen 20 µM; peptide 100 µM.
Experimental: as §1
In data set [16] the target is T4, ER-β. In words: Thermofluor thermal shift; ER-β 8 µM with 4-OH-tamoxifen 20 µM; peptide 100 µM.
Experimental: as §1
The target in data set [17] is T3, ER-α. In words: Thermofluor thermal shift; ER-α 8 µM with 17-α-ethylene-E2 20 µM; peptide 100 µM.
Experimental: as §1
The target of data set [18] is T4, ER-β. In words: Thermofluor thermal shift; ER-β 8 µM with 17-α-ethylene-E2 20 µM; peptide 100 µM.
Experimental: as §1
Setting [19] is: ER-β 8 μM, ligand 20 μM, change from the receptor-ligand ΔTm.

T4 sequence (Q92731 256-505 limits assumed): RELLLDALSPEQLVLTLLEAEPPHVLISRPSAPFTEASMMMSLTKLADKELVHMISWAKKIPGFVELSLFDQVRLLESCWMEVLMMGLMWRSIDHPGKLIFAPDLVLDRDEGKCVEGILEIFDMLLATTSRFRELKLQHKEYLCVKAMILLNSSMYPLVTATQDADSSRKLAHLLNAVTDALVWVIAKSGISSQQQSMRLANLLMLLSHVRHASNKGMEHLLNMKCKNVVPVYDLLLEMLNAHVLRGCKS

Consider `CC(=O)[C@H]1CC[C@H]2[C@@H]3CCC4=CC(=O)CC[C@]4(C)[C@H]3[C@H](O)C[C@]12C` [11-α-hydroxy-progesterone], for which, on SXR, the “ΔΔTm SRC1-NR2” value turned out to be 4.6, the “ΔΔTm NcoR1-NR2” value stood at 1.0, the ΔTm ligand worked out at 6.3 °C and the “Probability Agonist (statistical probability of agonist state)” value (“Probability Agonist” below) is given as 0.96.
Turning to `CC(=O)[C@@]1(O)CC[C@H]2[C@@H]3CCC4=CC(=O)CC[C@]4(C)[C@H]3CC[C@@]21C` [17-α-hydroxyprogesterone], the “Probability Agonist” value on SXR is 0.47.
With `C[C@]12CC[C@@H](O)C[C@@H]1CC[C@@H]1[C@@H]2CC[C@]2(C)C(=O)CC[C@@H]12` [Androsterone], on SXR, the “ΔΔTm SRC1-NR2” value was found to be 3.5, the ΔTm ligand was 3.3 °C, the “Probability Agonist” value was 0.45 and the ΔTm at 100 µM is 3.8 °C.
In the case of `CCOC(=O)C(C)(C)Oc1ccc(Cl)cc1` [Clofibrate], on SXR, the Kd came out at 23 µM, the “ΔΔTm SRC1-NR2” value is given as 3.3, the ΔTm ligand came out at 1.3 °C and the “Probability Agonist” value was determined as 0.49. The ΔTm at 100 µM at SXR amounted to 3.4 °C.
On to `C[C@]12CCC(=O)C=C1CC[C@@H]1[C@@H]2C(=O)C[C@@]2(C)[C@H]1CC[C@]2(O)C(=O)CO` [Cortisone], for which, on SXR, the “ΔΔTm NcoR1-NR2” value is on record as 3.6 and the “Probability Agonist” value is reported as 0.37.
With `C[C@]12CC[C@@H]3c4ccc(O)cc4CC[C@H]3[C@@H]1CC[C@@H]2O` [Estradiol], the “Observed ΔTm Stabilization, SRC3-NR2” value at ER-β [1] (setting [19]) is 3.5. Further, the “Observed ΔTm Stabilization, NR2” value on ER-β [1] (ER-β 8 μM, ligand 20 μM) is reported as 3.4. Also, at SXR, the Kd is 8.7 µM, the “ΔΔTm SRC1-NR2” value is 3.9, the “Probability Agonist” value was found to be 0.76 and the ΔTm at 100 µM was determined as 2.3 °C.
In the case of `C[C@]12CCC(=O)C=C1CC[C@@H]1[C@@H]2[C@@H](O)C[C@@]2(C)[C@H]1CC[C@]2(O)C(=O)CO` [Hydrocortisone], on SXR, the Kd worked out at 17 µM, the “ΔΔTm SRC1-NR2” value is 3.3, the ΔTm ligand amounted to 1.6 °C and the “Probability Agonist” value came out at 0.44. On SXR, the ΔTm at 100 µM was determined as 3.7 °C.
Turning to `C[C@]12CC[C@@H]3c4ccc(O)cc4C[C@@H](CCCCCCCCC[S+]([O-])CCCC(F)(F)C(F)(F)F)[C@H]3[C@@H]1CC[C@@H]2O` (some centres unmarked) [ICI-182780], at ER-α [2] (ER-α 8 μM, ligand 20 μM, co-activator peptide SRC3-NR2 100 μM, change from the receptor-ligand ΔTm), the “Observed ΔTm Stabilization, SRC3-NR2” value is recorded as 0.2. The ΔTm at 100 µM at ER-α [2] (ER-α 8 μM, ligand 20 μM, co-repressor peptide NCoR-1 100 μM, change from the receptor-ligand ΔTm, read-out: Observed ΔTm Stabilization, NCoR1-NR1) is -0.6 °C; on ER-β [1] (ER-β 8 μM, ligand 20 μM, co-repressor peptide NCoR-1 100 μM, change from the receptor-ligand ΔTm, read-out: Observed ΔTm Stabilization, NCoR1-NR1) it was 0.3 °C. The “Observed ΔTm Stabilization, NR2” value at ER-α [2] (ER-α 8 μM, ligand 20 μM, change in Tm stabilization from the receptor-ligand ΔTm, head shifted, see doubts) was 0.2; on ER-β [1] (ER-β 8 μM, ligand 20 μM), 0.4. The “Recruitment of co-activators (additional stabilization in the presence of co-activator protein/peptide)” value on ER-α [2] (result in words) and at ER-β [1] (result in words) was “no ability to recruit co-activators” each time. For the same molecule, the “Observed ΔTm Stabilization, SRC-3” value at ER-β [1] (ER-β 8 μM, ligand 20 μM) worked out at 16.7.
Regarding `COc1cc2c(cc1O)CC[C@@H]1[C@@H]2CC[C@]2(C)[C@@H](O)CC[C@@H]12` [Ligand 2-methoxy-E2, 2-methoxy-E2], the “Observed ΔTm Stabilization, SRC-3” value on ER-α [2] (ER-α 8 μM, ligand 20 μM, average of four experiments, head shifted, see doubts) is on record as 3.5. Besides, the “Observed ΔTm Stabilization, SRC3-NR2” value on ER-β [1] (setting [19]) is recorded as 4.4. The “Observed ΔTm Stabilization, NCoR1-NR1” value at ER-β [1] (ER-β 8 μM, ligand 20 μM, co-repressor peptide NCoR-1 100 μM, change from the receptor-ligand ΔTm) was −0.7. In addition, at ER-β [1] (ER-β 8 μM, ligand 20 μM), the “Observed ΔTm Stabilization, SRC-3” value turned out to be 2.9 and the “Observed ΔTm Stabilization, NR2” value was determined as 4.4.
`C[C@H](CCC(=O)O)[C@H]1CC[C@H]2[C@@H]3CC[C@@H]4C[C@H](O)CC[C@]4(C)[C@H]3CC[C@]12C` [Lithocholic acid]: at SXR, the “ΔΔTm SRC1-NR2” value is given as 2.9, the ΔTm ligand was determined as 2.4 °C and the ΔTm at 100 µM came to 1.4 °C.
Consider MHGSLLQEKHRILHKLLQNGNSP (peptide, UniProt Q9Y6Q9 673-695, looked up, Peptide fragment of SRC-3) [co-activator peptide SRC3-NR2], for which the “change in Tm stabilization from the receptor-ligand ΔTm” value (“change … from the receptor-ligand ΔTm” for short) with ER-α [3] is 0.9; with ER-β [4], 0.9; with ER-α [5] it was 2.3; with ER-β [6], 3.7; with ER-α [7], 4.3; in the data set with ER-α [8], 0. For the same molecule, the “change … from the receptor-ligand ΔTm” value with ER-β [9] was determined as 3.5; with ER-β [10], 0.4; with ER-α [11], 0.2; in the data set with ER-β [12], 0.6; in the data set with ER-α [13] it was 4.3; with ER-β [14], 4.4. For the same molecule, the “change … from the receptor-ligand ΔTm” value with ER-α [15] came to 0.7; with ER-β [16], 0.8; with ER-α [17], 3.9; in the data set with ER-β [18], 2.6.

As usually defined, the Kd is a measure of binding affinity in units of concentration.
